Results on 20 compounds are retold here after patent US6573293B2, “Pyrrole substituted 2-indolinone protein kinase inhibitors” (Sugen, Inc., priority 2000, dated 2003).

In one assay the target is T1, HER-2 kinase (Homo sapiens, UniProt P04626).
T1 construct: Use EGFr/HER-2 chimera/3T3-C7 cell line for this assay; It is expressed in mouse NIH 3T3 clone C7 cells; P00533 (Epidermal growth factor receptor)
Nature of the assay: Cellular HER-2 kinase assay. It counts as cell-based. The note with it: read-out: Her2 Kinase IC50.

For assay [1], the target named is T2, EGFR (Homo sapiens, UniProt P00533).
T2 construct: A431 cell lysate (SUGEN, Inc.); host or cells: A431
Nature of the assay: EGFR bioassay (bio EGF). It counts as biochemical.
Protocol: This assay is used to the in vitro kinase activity of FGF1-R in an ELISA assay.
1. Corning 96-well Elisa plates.
2. SUMO1 monoclonal anti-EGFR antibody (SUGEN, Inc.).
5. Blocking Buffer: for 100 ml, mix 5.0 g Carnation Instant Non-fat Milk® with 100 ml of PBS.
6. A431 cell lysate (SUGEN, Inc.).
9. […] This reagent should be made up immediately prior to use and kept on ice.
11. […] Prepare just prior to use, keep on ice.
12. NUNC 96-well V bottom polypropylene plates.
14. Rabbit polyclonal anti-phosphotyrosine serum (SUGEN, Inc.).
15. Goat anti-rabbit IgG peroxidase conjugate (Biosource Cat. No. ALI0404).
17. 30% Hydrogen peroxide.
1. Coat Corning 96 well ELISA plates with 0.5 μg SUMO1 in 100 μl PBS per well, store overnight at 4° C.
2. Remove unbound SUMO1 from wells by inverting plate to remove liquid. Wash 1×with dH2O. Pat the plate on a paper towel to remove excess liquid.
3. Add 150 μl of Blocking Buffer to each well. Incubate, with shaking, for 30 min. at room temperature.
4. Wash plate 3×with deionized water, then once with TBST. Pat plate on a paper towel to remove excess liquid and bubbles.
5. Dilute lysate in PBS (7 μg lysate/100 μl PBS).
6. Add 100 μl of diluted lysate to each well. Shake at room temperature for 1 hr.
7. Wash plates as in 4, above.
8. Add 120 μl TBS to ELISA plate containing captured EGFR.
10. Add 13.5 μl diluted test compound to ELISA plate. To control wells, add 13.5 μl TBS in 10% DMSO.
11. Incubate, with shaking, for 30 minutes at room temperature.
12. Add 15 μl phosphorylation mix to all wells except negative control well. Final well volume should be approximately 150 μl with 3 μM ATP/5 mM MnCl2 final concentration in each well. Incubate with shaking for 5 minutes.
13. Stop reaction by adding 16.5 μl of EDTA solution while shaking. Shake for additional 1 min.
14. Wash 4×with deionized water, 2×with TBST.
15. Add 100 μl anti-phosphotyrosine (1:3000 dilution in TBST) per well. Incubate, with shaking, for 30-45 min. at room temperature.
17. […] Incubate with shaking for 30 min. at room temperature.
19. Add 100 μl of ABTS/H2O2 solution to each well.
20. Incubate 5 to 10 minutes with shaking. Remove any bubbles.
21. If necessary, stop reaction by adding 100 μl 0.2 M HCl per well.

Assay [2] has as its target T2, EGFR. Nature of the assay: cell EGF assay. Type of assay: cell-based. The method, then:
Several of the assays described herein are performed in an ELISA (Enzyme-Linked Immunosorbent Sandwich Assay) format (Voller, et al., 1980, “Enzyme-Linked Immunosorbent Assay,” Manual of Clinical Immunology, 2d ed., Rose and Friedman, Am. Soc. Of Microbiology, Washington, D.C., pp. 359-371). The general procedure is as follows: a compound is introduced to cells expressing the test kinase, either naturally or recombinantly, for a selected period of time after which, if the test kinase is a receptor, a ligand known to activate the receptor is added. The cells are lysed and the lysate is transferred to the wells of an ELISA plate previously coated with a specific antibody recognizing the substrate of the enzymatic phosphorylation reaction. Non-substrate components of the cell lysate are washed away and the amount of phosphorylation on the substrate is detected with an antibody specifically recognizing phosphotyrosine compared with control cells that were not contacted with a test compound.

A further assay has as its target T3, GST-Flk1 (Mus musculus, UniProt P35918).
T3 construct: GST-Flk1cd purified from sf9 recombinant baculovirus transformation; host or cells: Sf9 (baculovirus)
The assay is described as follows: GST-FLK-1 bioassay (bio flkGST). Type of assay: biochemical.

The target in another assay is T4, PDGFR-β (Homo sapiens, UniProt P09619).
T4 construct: host or cells: NIH 3T3
The assay is described as follows: PDGFR bioassay (bio PDGF). It counts as biochemical.

T1 sequence (P04626 720-987 limits assumed): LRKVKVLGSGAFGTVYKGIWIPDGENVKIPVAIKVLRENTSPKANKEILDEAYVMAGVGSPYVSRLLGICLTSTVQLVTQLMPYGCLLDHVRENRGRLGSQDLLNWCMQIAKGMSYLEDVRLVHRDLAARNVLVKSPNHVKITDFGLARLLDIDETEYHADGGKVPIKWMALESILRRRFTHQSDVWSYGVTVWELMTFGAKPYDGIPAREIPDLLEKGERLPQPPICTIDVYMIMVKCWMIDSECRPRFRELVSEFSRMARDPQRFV
T4 sequence (P09619 33-1106): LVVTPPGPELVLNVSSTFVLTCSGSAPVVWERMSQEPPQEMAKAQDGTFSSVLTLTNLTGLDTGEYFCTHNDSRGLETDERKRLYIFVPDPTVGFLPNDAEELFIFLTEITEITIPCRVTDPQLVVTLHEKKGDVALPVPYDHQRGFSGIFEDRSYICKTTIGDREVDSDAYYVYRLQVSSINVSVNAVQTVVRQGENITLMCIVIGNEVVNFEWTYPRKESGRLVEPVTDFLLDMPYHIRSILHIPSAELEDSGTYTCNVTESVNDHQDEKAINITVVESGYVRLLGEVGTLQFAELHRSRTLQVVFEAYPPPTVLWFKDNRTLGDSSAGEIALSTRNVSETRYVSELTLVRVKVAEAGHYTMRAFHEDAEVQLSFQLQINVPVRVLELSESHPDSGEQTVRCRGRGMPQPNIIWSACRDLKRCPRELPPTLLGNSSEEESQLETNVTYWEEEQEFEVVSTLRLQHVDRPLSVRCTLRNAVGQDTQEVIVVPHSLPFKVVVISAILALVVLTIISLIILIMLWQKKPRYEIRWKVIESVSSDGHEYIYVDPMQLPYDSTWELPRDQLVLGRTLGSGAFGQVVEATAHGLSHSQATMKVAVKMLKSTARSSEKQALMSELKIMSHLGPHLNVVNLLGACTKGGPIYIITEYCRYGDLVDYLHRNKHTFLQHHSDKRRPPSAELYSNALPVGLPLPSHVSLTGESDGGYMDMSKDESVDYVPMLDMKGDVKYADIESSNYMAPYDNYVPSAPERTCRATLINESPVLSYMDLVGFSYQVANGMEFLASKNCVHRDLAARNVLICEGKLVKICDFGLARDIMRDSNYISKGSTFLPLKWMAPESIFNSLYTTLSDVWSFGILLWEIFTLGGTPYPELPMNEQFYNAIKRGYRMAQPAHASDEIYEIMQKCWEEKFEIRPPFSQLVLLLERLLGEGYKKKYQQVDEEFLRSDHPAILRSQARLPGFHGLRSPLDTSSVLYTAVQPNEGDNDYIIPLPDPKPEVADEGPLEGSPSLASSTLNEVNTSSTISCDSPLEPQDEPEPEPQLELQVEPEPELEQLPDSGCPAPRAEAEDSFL
T3 sequence (P35918 784-1345 limits assumed): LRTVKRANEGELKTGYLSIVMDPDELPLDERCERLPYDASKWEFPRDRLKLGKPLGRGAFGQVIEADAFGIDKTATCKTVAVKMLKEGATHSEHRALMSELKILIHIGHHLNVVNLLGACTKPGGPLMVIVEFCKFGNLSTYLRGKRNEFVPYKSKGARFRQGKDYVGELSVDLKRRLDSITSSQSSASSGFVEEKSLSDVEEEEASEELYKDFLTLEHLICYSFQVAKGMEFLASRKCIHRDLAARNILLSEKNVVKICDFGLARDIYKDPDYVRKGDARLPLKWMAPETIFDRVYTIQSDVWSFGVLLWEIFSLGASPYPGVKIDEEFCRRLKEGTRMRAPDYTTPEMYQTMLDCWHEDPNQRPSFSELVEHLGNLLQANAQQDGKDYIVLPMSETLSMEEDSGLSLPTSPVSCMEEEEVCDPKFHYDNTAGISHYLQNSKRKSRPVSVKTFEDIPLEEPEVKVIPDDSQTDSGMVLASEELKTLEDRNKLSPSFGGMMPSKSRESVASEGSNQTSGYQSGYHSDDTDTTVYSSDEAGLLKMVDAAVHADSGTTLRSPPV
T2 sequence (P00533 25-1210): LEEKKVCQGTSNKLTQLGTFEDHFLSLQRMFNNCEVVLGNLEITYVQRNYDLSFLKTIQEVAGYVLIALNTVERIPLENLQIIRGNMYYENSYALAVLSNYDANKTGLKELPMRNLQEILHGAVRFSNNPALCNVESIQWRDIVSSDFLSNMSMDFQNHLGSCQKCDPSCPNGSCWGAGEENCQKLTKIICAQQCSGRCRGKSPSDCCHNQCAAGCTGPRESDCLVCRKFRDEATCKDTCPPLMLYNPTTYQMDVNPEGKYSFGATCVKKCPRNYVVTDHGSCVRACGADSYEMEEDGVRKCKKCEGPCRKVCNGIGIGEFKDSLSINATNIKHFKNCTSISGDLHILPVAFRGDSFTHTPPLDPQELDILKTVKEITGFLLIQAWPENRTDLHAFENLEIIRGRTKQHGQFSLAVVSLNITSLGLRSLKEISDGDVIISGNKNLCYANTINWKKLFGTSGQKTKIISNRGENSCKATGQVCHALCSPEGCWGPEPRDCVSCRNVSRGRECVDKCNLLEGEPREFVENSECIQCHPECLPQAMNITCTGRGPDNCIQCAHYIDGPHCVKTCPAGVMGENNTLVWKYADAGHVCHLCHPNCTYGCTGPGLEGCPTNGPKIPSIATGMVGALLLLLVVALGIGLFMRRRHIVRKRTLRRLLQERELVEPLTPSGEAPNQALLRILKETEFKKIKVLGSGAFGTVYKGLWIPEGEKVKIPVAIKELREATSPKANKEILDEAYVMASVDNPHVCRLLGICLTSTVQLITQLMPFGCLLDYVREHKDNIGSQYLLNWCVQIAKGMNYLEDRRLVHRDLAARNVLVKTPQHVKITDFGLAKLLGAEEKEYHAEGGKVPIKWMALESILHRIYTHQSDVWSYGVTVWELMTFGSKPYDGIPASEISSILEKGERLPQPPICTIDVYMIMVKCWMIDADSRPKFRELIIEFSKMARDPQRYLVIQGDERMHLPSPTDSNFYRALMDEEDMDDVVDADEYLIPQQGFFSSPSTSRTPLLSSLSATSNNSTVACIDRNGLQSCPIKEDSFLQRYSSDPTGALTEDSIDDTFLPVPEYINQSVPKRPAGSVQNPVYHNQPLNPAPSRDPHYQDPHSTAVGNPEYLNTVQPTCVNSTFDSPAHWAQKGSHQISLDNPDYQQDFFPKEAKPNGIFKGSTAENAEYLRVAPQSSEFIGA
Protocol for GST-Flk1: This assay analyzes the tyrosine kinase activity of GST-Flk1 on poly(glu,tyr) peptides.
Preparation of poly(glu,tyr)(pEY) coated assay plates: Coat 2 ug/well of poly(glu,tyr)(pEY) in 100 ul PBS, hold at room temperature for 2 hours or at 4° C. overnight. Cover plates well to prevent evaporation.
When all reagents have dissolved, adjust the pH to 7.2 with HCl. Bring total volume to 1 L with dH2O.
PBST Buffer: to 1 L of PBS Buffer, add 1.0 ml Tween-20.
Adjust pH to 7.2 with HCl. Add 10 g BSA, stir to dissolve. Bring total volume to 1 L with dH2O. Filter to remove particulate matter.
Adjust total volume to 1 L with PBS buffer, filter to remove particulate matter.
GST-Flk1cd purified from sf9 recombinant baculovirus transformation (SUGEN, Inc.).
Add 10 N NaOH until EDTA dissolves. Adjust pH to 8.0. Adjust total volume to 100 ml with dH2O.
Anti-phosphotyrosine monoclonal antibody conjugated to horseradish peroxidase (PY99 HRP, Santa Cruz Biotech).
2,2′-Azinobis(3-ethylbenzthiazoline-6-sulfonic acid (ABTS, Moss, Cat. No. ABST).
Coat Corning 96-well ELISA plates with 2 μg of polyEY peptide in sterile PBS as described in step 3 of Materials and Reagents.
Remove unbound liquid from wells by inverting plate. Wash once with TBST. Pat the plate on a paper towel to remove excess liquid.
Add 100 μl of 1% BSA in PBS to each well. Incubate, with shaking, for 1 hr. at room temperature.
Soak wells with 50 mM HEPES (pH7.5) (150 μl/well).
Dilute test compound with dH2O/4% DMSO to 4 times the desired final assay concentration in 96-well polypropylene plates.
Add 25 μl diluted test compound to ELISA plate. In control wells, place 25 μl of dH2O/4% DMSO.
Add 25 μl 0.5M EDTA to negative control wells.
Dilute GST-Flk1 to 0.005 μg (5 ng)/well with KDB.
Add 50 μl of diluted enzyme to each well.
Incubate, with shaking, for 15 minutes at room temperature.
Wash 3×with TBST and pat plate on paper towel to remove excess liquid.
Incubate, with shaking, for 90 min. at room temperature.
Add 100 μl of room temperature ABTS solution to each well.
Stop reaction by adding 20 μl of 10% SDS to each well.
Protocol for PDGFR-β: Corning 96-well Elisa plates
28D4C10 monoclonal anti-PDGFR antibody (SUGEN, Inc.).
Blocking Buffer (same as for EGFR bioassay).
PDGFR-β expressing NIH 3T3 cell lysate (SUGEN, Inc.).
Kinase buffer phosphorylation mix: for 10 ml, mix 250 μl 1M TRIS, 200 μl 5M NaCl, 100 μl 1M MnCl2 and 50 μl 100 mM Triton X-100 in enough dH2O to make 10 ml.
NUNC 96-well V bottom polypropylene plates.
Rabbit polyclonal anti-phosphotyrosine serum (SUGEN, Inc.).
Goat anti-rabbit IgG peroxidase conjugate (Biosource Cat. No. ALI0404).
Hydrogen peroxide, 30% solution.
Coat Corning 96 well ELISA plates with 0.5 μg 28D4C10 in 100 μl PBS per well, store overnight at 4° C.
Remove unbound 28D4C10 from wells by inverting plate to remove liquid. Wash 1×with dH2O. Pat the plate on a paper towel to remove excess liquid.
Add 150 μl of Blocking Buffer to each well. Incubate for 30 min. at room temperature with shaking.
Wash plate 3×with deionized water, then once with TBST. Pat plate on a paper towel to remove excess liquid and bubbles.
Dilute lysate in HNTG (10 μg lysate/100 μl HNTG).
Add 100 μl of diluted lysate to each well. Shake at room temperature for 60 min.
Wash plates as described in Step 4.
Add 80 μl working kinase buffer mix to ELISA plate containing captured PDGFR.
Add 10 μl diluted test compound to ELISA plate. To control wells, add 10 μl TBS+10% DMSO. Incubate with shaking for 30 minutes at room temperature.
Add 10 μl ATP directly to all wells except negative control well (final well volume should be approximately 100 μl with 20 μM ATP in each well.) Incubate 30 minutes with shaking.
Stop reaction by adding 10 μl of EDTA solution to each well.
Wash 4×with deionized water, twice with TBST.
Add 100 μl anti-phosphotyrosine (1:3000 dilution in TBST) per well. Incubate with shaking for 30-45 min. at room temperature.
Incubate with shaking for 30 min. at room temperature.
Add 100 μl of ABTS/H2O2 solution to each well.
Incubate 10 to 30 minutes with shaking. Remove any bubbles.
If necessary stop reaction with the addition of 100 μl 0.2 M HCl per well.

One may read the IC50 as the concentration that inhibits the measured activity by half. Turning to `Cc1cc(C(=O)NCCCN2CCCC2)[nH]c1/C=C1\C(=O)Nc2ccc(Br)cc21` [Example 6, 5-(5-Bromo-2-oxo-1,2-dihydroindol-3-ylidenemethyl)-4-methyl-1H-pyrrole-2-carboxylic acid (3-pyrrolidin-1-ylpropyl)amide], the half-inhibitory concentration (IC50) at HER-2 kinase came out at 2.43 µM; against EGFR [1], 3.26 µM; on EGFR [2] it was 7.82 µM; against GST-Flk1 it was 4.04 µM.

Regarding `CCN(CC)CCCNC(=O)c1[nH]c(/C=C2\C(=O)Nc3ccc(Br)cc32)c2c1CCCC2` [Example 18, 3-(5-Bromo-2-oxo-1,2-dihydroindol-3-ylidenemethyl)-4,5,6,7-tetrahydro-2H-isoindole-1-carboxylic acid (3-diethylaminopropyl)amide], the half-maximal inhibitory concentration (IC50) at HER-2 kinase is 4.99 µM; against EGFR [1] it was 2.57 µM; against EGFR [2], 9.23 µM; against GST-Flk1, 2.67 µM.

With `O=C1Nc2ccc(Br)cc2/C1=C/c1[nH]c(C(=O)NCCCN2CCCC2)c2c1CCCC2` [Example 19, 3-(5-Bromo-2-oxo-1,2-dihydroindol-3-ylidenemethyl)-4,5,6,7-tetrahydro-2H-isoindole-1-carboxylic acid (3-pyrrolidin-1-ylpropyl)amide], the IC50 came out at 8.37 µM on HER-2 kinase, 6.86 µM against EGFR [1], 34.2 µM on EGFR [2] and 7.5 µM on GST-Flk1.

Take `CCN(CC)CCNC(=O)c1[nH]c(/C=C2\C(=O)Nc3cc(-c4cccnc4)ccc32)c2c1CCCC2` [Example 20, 3-(2-Oxo-6-pyridin-3-yl-1,2-dihydroindol-3-ylidenemethyl)-4,5,6,7-tetrahydro-2H-isoindole-1-carboxylic acid (2-diethylaminoethyl)amide]: the IC50 on HER-2 kinase was 8 µM; against EGFR [1], more than 100 µM; against EGFR [2], 41.2 µM; on GST-Flk1, 11.5 µM.

Turning to `CC(=O)c1c(/C=C2\C(=O)Nc3ccc(Br)cc32)[nH]c(C(=O)NCCc2ccc(O)cc2)c1C` [Example 36, 4-Acetyl-5-(5-bromo-2-oxo-1,2-dihydroindol-3-ylidenemethyl)-3-methyl-1H-pyrrole-2-carboxylic acid [2-(4-hydroxy-phenyl)-ethyl]amide], the 50% inhibitory concentration (IC50) at HER-2 kinase is more than 100 µM; against EGFR [1] it was more than 100 µM; against PDGFR-β, more than 100 µM; against GST-Flk1, more than 20 µM.

Turning to `CC(C)c1[nH]c(/C=C2\C(=O)Nc3ccc(Br)cc32)c(-c2ccccc2)c1C(=O)NCCCN1CCN(C)CC1` [Example 40, 5-(5-Bromo-2-oxo-1,2-dihydroindol-3-ylidenemethyl)-2-isopropyl-4-phenyl-1H-pyrrole-3-carboxylic acid [3-(4-methyl-piperazin-1-yl)-propyl]amide], the IC50 on HER-2 kinase came out at 6.27 µM; on EGFR [1], 6.52 µM; on PDGFR-β, 7.9 µM; against GST-Flk1, 4.5 µM.

Regarding `COc1ccccc1-c1ccc2c(c1)NC(=O)/C2=C\c1[nH]c(C)c(C(=O)NCCN(C)C)c1-c1ccccc1` [Example 45, 5-[6-(2-Methoxy-phenyl)-2-oxo-1,2-dihydroindol-3-ylidenemethyl]-2-methyl-4-phenyl-1H-pyrrole-3-carboxylic acid (2-dimethylamino-ethyl)amide], the results for the IC50 on EGFR [2] and against GST-Flk1 were 30 µM and 1.71 µM, respectively.

For `Cc1[nH]c(/C=C2\C(=O)Nc3cc(-c4ccccc4)ccc32)c(C)c1C(=O)NCCN(C)C` [Example 49, 2,4-Dimethyl-5-(2-oxo-6-phenyl-1,2-dihydroindol-3-ylidenemethyl)-1H-pyrrole-3-carboxylic acid (2-dimethylamino-ethyl)amide], the 50% inhibitory concentration (IC50) against EGFR [2] is 43.9 µM.

`Cc1[nH]c(/C=C2\C(=O)Nc3ccc(Cl)cc32)c(C)c1C(=O)NCCN(C)C` [Example 50, 5-(5-Chloro-2-oxo-1,2-dihydroindol-3-ylidenemethyl)-2,4-dimethyl-1H-pyrrole-3-carboxylic acid (2-dimethylamino-ethyl)amide] yielded a concentration for half-maximal inhibition (IC50) on EGFR [2] of 20.3 µM.

In the case of `Cc1[nH]c(/C=C2\C(=O)Nc3ccc(Br)cc32)c(C)c1C(=O)NCCCn1ccnc1` [Example 53, 5-(5-Bromo-2-oxo-1,2-dihydroindol-3-ylidenemethyl)-2,4-dimethyl-1H-pyrrole-3-carboxylic acid (3-imidazol-1-ylpropyl)amide], the IC50 on HER-2 kinase is more than 100 µM; on EGFR [1], more than 100 µM; on PDGFR-β, less than 0.78 µM; on EGFR [2], more than 100 µM.

For the compound `COc1ccccc1-c1ccc2c(c1)NC(=O)/C2=C\c1[nH]c(C)c(C(=O)NCCN(C)C)c1C` [Example 54, 5-[6-(2-Methoxy-phenyl)-2-oxo-1,2-dihydroindol-3-ylidenemethyl)-2,4-dimethyl-1H-pyrrole-3-carboxylic acid (2-dimethylamino-ethyl)amide], the IC50 was determined as 7.02 µM on HER-2 kinase, 23.9 µM against EGFR [1], 9.76 µM against EGFR [2] and 1.98 µM against GST-Flk1.

For the compound `CCN(CC)CCNC(=O)c1c(C)[nH]c(/C=C2\C(=O)Nc3cc(-c4ccccc4)ccc32)c1C` [Example 59, 2,4-Dimethyl-5-(2-oxo-6-phenyl-1,2-dihydroindol-3-ylidenemethyl)-1H-pyrrole-3-carboxylic acid (2-diethylaminoethyl)amide], the concentration for half-maximal inhibition (IC50) was more than 100 µM on HER-2 kinase, more than 100 µM at EGFR [1], less than 0.78 µM at PDGFR-β and more than 100 µM against EGFR [2].

With `Cc1[nH]c(/C=C2\C(=O)Nc3ccc(-c4ccccc4)cc32)c(C)c1C(=O)NCCCN(C)C` [Example 66, 2,4-Dimethyl-5-(2-oxo-5-phenyl-1,2-dihydroindol-3-ylidenemethyl)-1H-pyrrole-3-carboxylic acid (3-dimethylamino-propyl)amide], the 50% inhibitory concentration (IC50) was 2.76 µM at HER-2 kinase, more than 100 µM on EGFR [1], 11.8 µM on EGFR [2] and less than 0.05 µM on GST-Flk1.

As for `Cc1[nH]c(/C=C2\C(=O)Nc3ccc(Br)cc32)c(C)c1C(=O)NCc1ccncc1` [Example 74, 5-(5-Bromo-2-oxo-1,2-dihydroindol-3-ylidenemethyl)-2,4-dimethyl-1H-pyrrole-3-carboxylic acid (pyridin-4-ylmethyl)amide], the 50% inhibitory concentration (IC50) at HER-2 kinase is more than 100 µM; at EGFR [1] it was 46.8 µM; on PDGFR-β, 0.09 µM; against GST-Flk1, 1.2 µM.

Consider `CCCCc1ccc(-c2ccc3c(c2)NC(=O)/C3=C\c2[nH]c(C)c(C(=O)NCCN3CCCC3)c2C)cc1` [Example 75, 5-[6-(4-Butyl-phenyl)-2-oxo-1,2-dihydroindol-3-ylidenemethyl]-2,4-dimethyl-1H-pyrrole-3-carboxylic acid (2-pyrrolidin-1-yl-ethyl)amide], for which the IC50 was more than 100 µM on HER-2 kinase, more than 100 µM at EGFR [1], 61.6 µM against PDGFR-β and 2.7 µM at GST-Flk1.

Turning to `COc1ccc(C(C)C)cc1-c1ccc2c(c1)NC(=O)/C2=C\c1[nH]c(C)c(C(=O)NCCN2CCCC2)c1C` [Example 76, 5-[6-(5-Isopropyl-2-methoxy-phenyl)-2-oxo-1,2-dihydroindol-3-ylidenemethyl]-2,4-dimethyl-1H-pyrrole-3-carboxylic acid (2-pyrrolidin-1-yl-ethyl)amide], the IC50 came out at 3.01 µM on HER-2 kinase, 5.11 µM at EGFR [1], 19.2 µM against PDGFR-β and 3.33 µM on GST-Flk1.

For `CCc1ccc(-c2ccc3c(c2)NC(=O)/C3=C\c2[nH]c(C)c(C(=O)NCCN3CCCC3)c2C)cc1` [Example 77, 5-[6-(4-Ethyl-phenyl)-2-oxo-1,2-dihydroindol-3-ylidenemethyl]-2,4-dimethyl-1H-pyrrole-3-carboxylic acid (2-pyrrolidin-1-yl-ethyl)amide], the concentration for half-maximal inhibition (IC50) was more than 100 µM on HER-2 kinase, more than 100 µM against EGFR [1], 25 µM at PDGFR-β and 0.49 µM against GST-Flk1.

Consider `COc1ccc(-c2ccc3c(c2)NC(=O)/C3=C\c2[nH]c(C)c(C(=O)NCCN3CCCC3)c2C)c(OC)c1` [Example 78, 5-[6-(2,4-Dimethoxy-phenyl)-2-oxo-1,2-dihydroindol-3-ylidenemethyl]-2,4-dimethyl-1H-pyrrole-3-carboxylic acid (2-pyrrolidin-1-yl-ethyl)amide], for which the IC50 at HER-2 kinase turned out to be 4.25 µM; against EGFR [1], 9.33 µM; against PDGFR-β it was 70.6 µM; on GST-Flk1 it was 1.94 µM.

Consider `Cc1[nH]c(/C=C2\C(=O)Nc3cc(-c4cccc(C(C)C)c4)ccc32)c(C)c1C(=O)NCCN1CCCC1` [Example 79, 5-[6-(3-Isopropyl-phenyl)-2-oxo-1,2-dihydroindol-3-ylidenemethyl]-2,4-dimethyl-1H-pyrrole-3-carboxylic acid (2-pyrrolidin-1-yl-ethyl)amide], for which the IC50 at HER-2 kinase is more than 100 µM; against EGFR [1] it was 27.4 µM; on PDGFR-β, more than 100 µM; against GST-Flk1, 1.49 µM.

As to `CCN(CC)CCNC(=O)c1c(C)[nH]c(/C=C2\C(=O)Nc3cc(C(=O)O)ccc32)c1C` [Example 81, 3-[4-(2-diethylaminoethylcarbamoyl)-3,5-dimethyl-1H-pyrrol-2-ylmethylene]-2-oxo-2,3-dihydro-1H-indole-6-carboxylic acid], the IC50 is more than 100 µM on HER-2 kinase, more than 100 µM against EGFR [1], 0.18 µM on PDGFR-β and 0.21 µM at GST-Flk1.
